Source: ChEMBL document CHEMBL1201862, “PubChem BioAssay data set” (2004)
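Cultured in 96-well plates, cells were exposed to test compound for 48 hours across five concentrations. At the GI50, growth is halved.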 The source made the active and inactive calls. Rule as the data show it: active = GI50 up to about 1.1 µM and inactive = higher.

How the values were obtained:
Assay in all cases: NCI-60 cell line screen, 48 h
SW-620 = test system: SW-620
SK-MEL-2 = test system: SK-MEL-2
COLO 205 = test system: COLO 205
IGROV-1 = test system: IGROV-1
SK-MEL-5 = test system: SK-MEL-5
U-251 = test system: U-251
EKVX = test system: EKVX
NCI-H460 = test system: NCI-H460
Malme-3M = test system: Malme-3M
HCT-15 = test system: HCT-15
HCC 2998 = test system: HCC 2998
HOP-62 = test system: HOP-62
K562 = test system: K562
CAKI-1 = test system: CAKI-1
MOLT-4 = test system: MOLT-4
PC-3 = test system: PC-3
T47D = test system: T47D

| SMILES | GI50 (SW-620) | GI50 (SK-MEL-2) | GI50 (COLO 205) | GI50 (IGROV-1) | GI50 (SK-MEL-5) | GI50 (U-251) | GI50 (EKVX) | GI50 (NCI-H460) | GI50 (Malme-3M) | GI50 (HCT-15) [µM] | GI50 (HCC 2998) | GI50 (HOP-62) | GI50 (K562) | GI50 (CAKI-1) | GI50 (MOLT-4) | GI50 (PC-3) | GI50 (T47D) |
| --- | --- | --- | --- | --- | --- | --- | --- | --- | --- | --- | --- | --- | --- | --- | --- | --- | --- |
| Nc1nncc2c1c(Br)cn2C1OC(CO)C(O)C1O (stereo unspecified) | 5.69 µM (inactive) | > 40.8 µM (inactive) | 48.6 µM (inactive) | 25.1 µM (inactive) | > 100 µM (inactive) | > 70.6 µM (inactive) | 25.6 µM (inactive) | 28.8 µM (inactive) | > 79.1 µM (inactive) | 4.23 | 5.27 µM (inactive) | 22 µM (inactive) | 5.73 µM (inactive) | 3.21 µM (inactive) | 2.91 µM (inactive) | – | – |
| N#Cc1nc(C2OC(COC(=O)c3ccccc3)C(OC(=O)c3ccccc3)C2OC(=O)c2ccccc2)oc1N (stereo unspecified) | 12.1 µM (inactive) | 27.3 µM (inactive) | 61.4 µM (inactive) | > 100 µM (inactive) | 14.5 µM (inactive) | 32.5 µM (inactive) | 39.5 µM (inactive) | 76.4 µM (inactive) | 84.3 µM (inactive) | 16.7 | 35.6 µM (inactive) | > 100 µM (inactive) | 6.12 µM (inactive) | 26.5 µM (inactive) | 5.6 µM (inactive) | – | – |
| CCOC(=O)N1N=NC2C3OC(C[C@@]3(C#N)OC(C)=O)[C@H]21 (stereo partly specified) | > 100 µM (inactive) | > 100 µM (inactive) | > 100 µM (inactive) | > 100 µM (inactive) | > 100 µM (inactive) | > 100 µM (inactive) | > 100 µM (inactive) | > 100 µM (inactive) | > 100 µM (inactive) | > 100 | > 100 µM (inactive) | > 100 µM (inactive) | > 100 µM (inactive) | > 100 µM (inactive) | > 100 µM (inactive) | – | – |
| CNC(=O)C1(C#N)C(c2ccccc2)C(C#N)(C(=O)NC)C1c1ccccc1 (stereo unspecified) | > 100 µM (inactive) | > 100 µM (inactive) | > 100 µM (inactive) | > 100 µM (inactive) | > 100 µM (inactive) | > 100 µM (inactive) | > 100 µM (inactive) | > 100 µM (inactive) | – | > 100 | > 100 µM (inactive) | > 100 µM (inactive) | 24.4 µM (inactive) | > 100 µM (inactive) | > 100 µM (inactive) | > 100 µM (inactive) | > 100 µM (inactive) |
| CC(=O)c1ccc(NC(=O)C(=O)Nn2c(S)nc3ccccc3c2=O)cc1 | > 100 µM (inactive) | > 100 µM (inactive) | > 100 µM (inactive) | > 100 µM (inactive) | > 100 µM (inactive) | > 100 µM (inactive) | > 100 µM (inactive) | > 100 µM (inactive) | > 100 µM (inactive) | > 100 | > 100 µM (inactive) | > 100 µM (inactive) | > 100 µM (inactive) | > 100 µM (inactive) | > 100 µM (inactive) | – | – |
| N#CCc1ccc(C(C#N)/C(CCCC(=O)Nc2cccc([N+](=O)[O-])c2)=N\NC(=O)NN)cc1 (stereo unspecified) | > 100 µM (inactive) | > 100 µM (inactive) | > 100 µM (inactive) | > 100 µM (inactive) | > 100 µM (inactive) | > 100 µM (inactive) | > 100 µM (inactive) | > 100 µM (inactive) | > 100 µM (inactive) | > 100 | > 100 µM (inactive) | > 100 µM (inactive) | > 100 µM (inactive) | > 100 µM (inactive) | > 100 µM (inactive) | – | – |
| C=C[C@]1(C)CCC2=C(CCC3C2(C)CCC[C@]3(C)CO)C1 (stereo partly specified) | 63.8 µM (inactive) | 45.9 µM (inactive) | 38.4 µM (inactive) | > 100 µM (inactive) | 67.1 µM (inactive) | 26.9 µM (inactive) | 51.9 µM (inactive) | 35.1 µM (inactive) | > 100 µM (inactive) | 33 | 43.7 µM (inactive) | > 100 µM (inactive) | 34.8 µM (inactive) | 76 µM (inactive) | 24.3 µM (inactive) | – | – |
